Experiments:
[1] = Cytotoxicity, Alamar Blue assay; format: cell-based; settings: mouse, J774.A1 macrophage cell line (ATCC TIB-67), J774.A1, 24 h, mean ± SD, >100 if inhibition did not reach 50% at the highest concentration, read-out: Murine Macrophages CC50
Description: Cytotoxicity of the selected compounds was evaluated after 24 h incubation of murine macrophage J774.A1 cell line (ATCC # TIB-67) with different concentrations of the tested compounds at 37 °C in a 5% CO2 humidified incubator. The viability of the macrophages was determined with the Alamar Blue assay as previously described.

Acanthamoeba griffini = experiment: In vitro effect against the trophozoite stage, Alamar Blue assay; format: cell-based; settings: 96 h, trophozoites, mean ± SD
Description: (§1) The anti-Acanthamoeba activity of molecules was evaluated against the Acanthamoeba castellanii Neff (ATCC 30010) type strain from the American Type Culture Collection and Acanthamoeba griffini obtained in previous studies. Those strains were grown axenically in Peptone Yeast Glucose (PYG) medium (0.75% (w/v) proteose peptone, 0.75% (w/v) yeast extract, and 1.5% (w/v) glucose) containing 40 μg of gentamicin ml−1 (Biochrom AG, Cultek, Granollers, Barcelona, Spain).
(§2) The anti-Acanthamoeba activities of the compounds were determined by the Alamar Blue assay as previously described. Briefly, Acanthamoeba strains were seeded in duplicate on a 96-well microtiter plate with 50 μL from a stock solution of 10^4 cells mL^−1. Amoebae were allowed to adhere for 15 min and 50 μL of serial dilution series of the eye drop solution was added. Finally, the Alamar Blue assay reagent (Bioresource, Europe, Nivelles, Belgium) was added into each well at an amount equal to 10% of the medium volume. The plates were then incubated for 96 h at 28 °C with a slight agitation and the emitted fluorescence was measured with an Enspire microplate reader (PerkinElmer, Massachusetts, USA) at 570/585 nm.

[2] = tested on: Acanthamoeba castellanii Neff; experiment: as above; format: cell-based; settings: for IC50: trophozoites, Alamar blue, 96 h, mean ± SD; for IC90: concentration used in the double-stain assay, A. castellanii Neff trophozoites
Description: as §1, §2

Acanthamoeba spp. cysts = experiment: In vitro effect against the cyst stage, Alamar Blue assay; format: cell-based; settings: both strains, viability of cysts
Description: The cysticidal activity was determined by the Alamar Blue assay at 144 h and confirmed visually by inverted microscopy. Cysts of both strains were prepared as described by Lorenzo-Morales et al. (2008). Briefly, trophozoite were transferred from PYG medium based cultures (trophozoite medium) to Neff´s encystment medium (NEM; 0.1 M KCl, 8 mM MgSO4·7H2O, 0.4 mM CaCl2·2H2O, 1 mM NaHCO3, and 20 mM ammediol (2-amino-2-methyl-1,3-propanediol; Sigma Aldrich Chemistry Ltd., Madrid, Spain), pH 8.8, at 25 °C) and were cultured in this medium with gentle shaking for a week in order to obtain mature cysts. After that, mature cysts were harvested and washed twice using the PYG medium.
A serial dilution of the tested molecules was made in PYG. The in vitro susceptibility assay was performed in sterile 96-well microtiter plates (Corning™). To these wells the drug concentration to be tested and 5 × 10^4 mature cysts of Acanthamoeba/ml were added. The final volume was 100 μL in each well. After 7 days of incubation with the drugs, the plate was centrifuged at 3000 rpm for 10 min. […] Finally, 10 μL of the Alamar Blue assay reagent (Biosource, Europe, Nivelles, Belgium) was placed into each well, and the plates were then incubated for 144 h at 28 °C with slight agitation and the emitted fluorescence was periodically examined with an Enspire microplate reader (PerkinElmer, Waltham, MA, USA) at 570/585 nm.

[3] = Solubility (comparison in words); format: physicochemical; settings: compared to the origin compound 1 (ursolic acid)
[4] = tested on: murine macrophage J774.A1 cell line; experiment: Cytotoxicity, Alamar Blue assay; format: cell-based; settings: 50 µM, J774A.1, inverted microscopy, compared to 1
[5] = tested on: Acanthamoeba castellanii Neff trophozoite; experiment: Double-stain assay (Hoechst 33342/PI) for programmed cell death; format: cell-based; settings: treated with IC90, 24 h; for Propidium Iodide (PI) stain: data not shown
Description: A double-stain apoptosis detection kit (Hoechst 33342/PI; GenScript, Piscataway, NJ, USA) and an inverted confocal microscope (Leica DMI 4000B) were used. The experiment was carried out by following the manufacturer’s recommendations, and 10^5 cells/well were incubated in a 24-well plate for 24 h with the previously calculated IC90. The double-staining pattern allows the identification of three groups in a cellular population: Live cells will show only a low level of fluorescence, cells undergoing PCD will show a higher level of blue fluorescence (as chromatin condenses), and dead cells will show low-blue and high-red fluorescence (as the propidium iodide stain enters the nucleus).

[6] = tested on: Acanthamoeba castellanii Neff; experiment: Mitochondrial membrane potential, JC-1; format: cell-based; settings: treated with IC90, 24 h; for decrease of mitochondrial membrane potential (ΔΨm): ratio of fluorescence 590/530 nm
Description: The collapse of an electrochemical gradient across the mitochondrial membrane during apoptosis was detected with the JC-1 mitochondrial membrane potential detection kit (Cell Technology). After being treated with IC90 of the test solution for 24 h, the cells were centrifuged (1000 r.p.m. × 10 min) and resuspended in JC-1 buffer. After that, 100 µL of each treated culture was added to a black 96 well plate (PerkinElmer) then 10 µL of JC-1 was added and incubated at 26 °C for 30 min. Analysis for the mean green and red fluorescence intensity was done using an Enspire microplate reader (PerkinElmer, Waltham, MA, USA) after 30 minutes. As well as images were taken on an EVOS fluorescence microscope from the Advanced Microscopy Group (AMG). The staining pattern allows the identification of two groups in a cellular population: Live cells will show only red fluorescence; and cells with low mitochondrial potential, (undergoing PCD) will show a higher level of green and red fluorescence.

Acanthamoeba Neff = experiment: Intracellular ROS production, CellROX Deep Red staining; format: cell-based, Acanthamoeba castellanii; settings: treated with IC90, 24 h, vs negative control
Description: The generation of intracellular ROS was detected using the CellROX® Deep Red fluorescent probe (Invitrogen). The cells were treated with IC90 of both 5 and 7 for 24 h and exposed to CellROX® Deep Red (5 μM, 30 min) at 26 °C in the dark.

IC50 (Acanthamoeba griffini; Acanthamoeba griffini) | IC50 [2] | IC50 (Acanthamoeba griffini) | solubility [3] | IC90 [2] | Structure (SMILES) | CC50 at 24 h [1] | cysticidal effect (Acanthamoeba spp. cysts) | effect on morphology of murine macrophages [4] | chromatin condensation (Hoechst 33342 stain) [5] | Propidium Iodide (PI) stain [5] | mitochondrial membrane potential, JC-1 imaging [6] | decrease of mitochondrial membrane potential (ΔΨm) [6] | reactive oxygen species (ROS) levels (Acanthamoeba Neff)
9.1 ± 1 µM | 37.1 ± 1.3 µM |  |  |  | COC(=O)[C@]12CC[C@@H](C)[C@H](C)C1C1=CCC3[C@@]4(C)CC[C@H](OC(C)=O)C(C)(C)C4CC[C@@]3(C)[C@]1(C)CC2 (some centres unmarked) [Compound 6] | > 100 µM |  |  |  |  |  |  | 
15.3 µM | 40 ± 2.7 µM | 15.2 ± 0.3 µM |  |  | C[C@H]1[C@H](C)CC[C@]2(C(=O)O)CC[C@]3(C)C(=CC[C@@H]4[C@@]5(C)CC[C@H](O)C(C)(C)[C@@H]5CC[C@]43C)[C@H]12 [Compound 1, Ursolic acid] | 17.7 ± 3.3 µM |  |  |  |  |  |  | 
10.2 ± 0.5 µM | 34.9 ± 1.5 µM |  |  |  | C[C@@H]1CC[C@]2(C(=O)O)CC[C@]3(C)C(=CCC4[C@@]5(C)CCC(=O)C(C)(C)C5CC[C@]43C)C2[C@H]1C (some centres unmarked) [Compound 3] | > 100 µM |  |  |  |  |  |  | 
6.9 ± 1.5 µM | 22.7 ± 1.4 µM |  | higher than the origin compound 1 | 86 µM | COC(=O)[C@]12CC[C@@H](C)[C@H](C)C1C1=CCC3[C@@]4(C)CC[C@H](OC)C(C)(C)C4CC[C@@]3(C)[C@]1(C)CC2 (some centres unmarked) [Compound 5] | > 100 µM | dose-dependent cysticidal effect | did not affect the morphology | induced chromatin condensation | did not stain | depolarize the mitochondrial membrane potential | 49.0% | increased
11.1 ± 0.8 µM | 24.2 ± 0.3 µM |  |  |  | CC(=O)O[C@H]1CC[C@@]2(C)C(CC[C@]3(C)C2CC=C2C4[C@@H](C)[C@H](C)CC[C@]4(C(=O)O)CC[C@]23C)C1(C)C (some centres unmarked) [Compound 2] | 93.2 ± 7.2 µM |  |  |  |  |  |  | 
11.5 ± 0.8 µM | 33.5 ± 2.1 µM |  |  |  | COC(=O)[C@]12CC[C@@H](C)[C@H](C)C1C1=CCC3[C@@]4(C)CC[C@H](OC(=O)c5ccccc5)C(C)(C)C4CC[C@@]3(C)[C@]1(C)CC2 (some centres unmarked) [Compound 8] | > 100 µM |  |  |  |  |  |  | 
3.73 ± 0.98 µM |  |  |  |  | [H]/N=C(\N/C(=N/[H])NCCCCCCNC(=N)NC(=N)Nc1ccc(Cl)cc1)Nc1ccc(Cl)cc1 [Chlorhexidine, reference compound] | 7.4 ± 0.39 µM |  |  |  |  |  |  | 
8.7 ± 0.4 µM | 21.9 ± 0.9 µM |  |  |  | COC(=O)[C@]12CC[C@@H](C)[C@H](C)C1C1=CCC3[C@@]4(C)CC[C@H](O)C(C)(C)C4CC[C@@]3(C)[C@]1(C)CC2 (some centres unmarked) [Compound 4] | 26.3 ± 1.7 µM |  |  |  |  |  |  | 
6.7 ± 1.8 µM | 21.4 ± 1.3 µM |  | higher than the origin compound 1 | 75 µM | COC(=O)[C@]12CC[C@@H](C)[C@H](C)C1C1=CCC3[C@@]4(C)CC[C@H](OC(=O)c5ccc([N+](=O)[O-])cc5)C(C)(C)C4CC[C@@]3(C)[C@]1(C)CC2 (stereo partly drawn) [Compound 7, 3β-(p-nitrobenzoyloxy)-urs-12-en-28-oic acid methyl ester] | > 100 µM | dose-dependent cysticidal effect |  | induced chromatin condensation | did not stain | depolarize the mitochondrial membrane potential | 35.0% | increased
